Experimental data from patent publication US9669049B2, “Compositions comprising gamma retrovirus vectors and methods of treating proliferative disorders” (Tocagen Inc., priority 2010, dated 2017).
Read-outs that look alike come from different tables or passages of the source.

Key:
Tu2449 cells = assay: Bortezomib plus vector, intracranial Tu2449 glioma survival; format: in vivo, mouse; settings: Bortezomib 1 mg/kg IP every 7 days; vector 6.3E4 TU/g IC; 5-FC cycles
Protocol: On Day 0 and every 7 days, Groups 3 and 4 received Bortezomib treatment (1 mg/kg; 25 μg/mouse) IP. […] Survival was assessed for at least 4 cycles.

[1] = system: cultured human plasmacytoid dendritic cells; assay: IFN production after in vitro stimulation of cultured human plasmacytoid dendritic cells; format: cell-based; design: key: +: positive or negative effects have been observed; −: positive or negative effects have been observed
[2] = system: cultured human glioma cells; assay: Initial viral spread in cultured human glioma cells by flow cytometric analysis; format: cell-based
[3] = system: intracranial tumor models; assay: In vivo screening, IC tumor model; settings: mouse
U-87MG = settings: 0.1 and 1 μM, 28 days
T98G = settings: 0.1 and 1 μM, 28 days
[4] = Vector copies in tissues after intracranial injection with or without steroid; format: in vivo, mouse; settings: right cerebrum, day 10; p<0.0001
Protocol: (§1) Dosing Procedures. For Group 3 only, methylprednisolone acetate (Depo-Medrol), 400 mg/kg, was administered subcutaneously (SC) at day −3.
Toca 511 or vehicle was administered by stereotaxic injection into the right frontal lobe. After anesthetizing the mice and preparing the skull, a small burr hole was drilled through the bone at coordinates AP=+0.5 mm and ML=−2.5 mm from bregma. […] After a hold of 5 minutes, the syringe was withdrawn, the hole sealed with bone wax, the skin closed, and the animal recovered from surgery. To minimize discomfort, ketoprofen was administered SC.
Tissue collection. On day 10, all animals were euthanized and selected tissues and fluids collected using disposable equipment to minimize possible cross-contamination of vector negative by vector positive tissues. […] Assays were performed in triplicate.

[5] = Pilot study of white blood cell count suppression; format: in vivo; settings: 400 mg/kg SC
Protocol: as §1

[6] = system: cultured human glioma cells; format: cell-based; design: key: +: positive or negative effects have been observed
parental CT26 cells = assay: Viral replication kinetics in CT26 cells with exogenous IFNα; settings: 1,340 units/mL daily; MOI 0.1 and 1
[7] = system: recurrent anaplastic oligodendroglioma; assay: Patient dog with spontaneous recurrent malignant glioma; format: in vivo; settings: second cycle, 160 mg/kg/day, after fifth day
Protocol: The tumor measured approximately 13 cm^3, and caused major lateral ventricle compression and significant midline shift. […] ProHance® (gadoteridol) was added to Toca 511 prior to injection to allow visualization of delivery by MRI. The volume of distribution of the vector was estimated to be approximately 10-12% of the tumor volume.
The dog was treated with 5-FC at a divided dose of 130 mg/kg/day, by mouth, three times daily with food for 5 days. The dose was increased to 160 mg/kg/day for 2 more days (7 days of 5-FC total). […] After 21 days of viral spread, a second cycle of 5-FC was initiated at the higher dose of 160 mg/kg/day (divided, three times a day with food).
The subject became more alert, active and remained clinically stable 13 weeks after injection of vector. The subject succumbed to a gastro-intestinal bleed at 15+ weeks, related to the extended administration of high dose steroids, and unrelated to the tumor. The estimated lifespan of the dog was no more than 3-4 weeks at the time of initial injection of the vector.

TLR3, 7, 8, 9 = settings: cited from earlier work
parental Tu2449 cells = assay: Viral replication kinetics in Tu2449 cells with exogenous IFNβ; settings: 500 units/mL daily; MOI 0.1 and 1

CC(C)C[C@H](NC(=O)[C@H](Cc1ccccc1)NC(=O)c1cnccn1)B(O)O [Bortezomib]
survival of Bortezomib and vector compared to vector, vehicle, or Bortezomib alone (Tu2449 cells): statistically significant survival advantage
Efficacy [1]: +
activity or benefit observed in the screening experiments (RRV): activity was observed

N#CCNC(=O)c1ccc(-c2ccnc(Nc3ccc(N4CCOCC4)cc3)n2)cc1 [Cyt387]
Efficacy [2]: −

O=C1Nc2ccc3ncsc3c2/C1=C/c1cnc[nH]1 [Imidazolo-oxindole]
Efficacy [2]: −

CCc1c2c(nc3ccc(OC(=O)N4CCC(N5CCCCC5)CC4)cc13)-c1cc3c(c(=O)n1C2)COC(=O)[C@]3(O)CC [Irinotecan]
Outcome summary IC tumor model [3]: No survival improvement

C[C@@H]1C[C@H]2[C@@H]3CCC4=CC(=O)C=C[C@]4(C)[C@@]3(F)[C@@H](O)C[C@]2(C)[C@@]1(O)C(=O)CO [Dexamethasone]
cell toxicity (U-87MG): No cell toxicity was observed
cell toxicity (T98G): No cell toxicity was observed
Efficacy [2]: +

CC(=O)OCC(=O)[C@@]1(O)CC[C@H]2[C@@H]3C[C@H](C)C4=CC(=O)C=C[C@]4(C)[C@H]3[C@@H](O)C[C@@]21C [methylprednisolone acetate]
increase of vector copies with steroids over no steroid [4]: more than 40 fold
duration of white blood cell count suppression below normal range [5]: at least 10 days

Cc1cc(Cl)ccc1OCCCC(=O)NO [Droxinostat]
Efficacy [2]: −

Nc1ccccc1NC(=O)c1ccc(CNC(=O)OCc2cccnc2)cc1 [MS-275]
Efficacy [2]: −
Efficacy [6]: +
activity or benefit observed in the screening experiments (RRV): activity was observed

C#Cc1cccc(Nc2ncnc3cc(OC)c(OCCCCCCC(=O)NO)cc23)c1 [CUDU-101]
Efficacy [2]: −

IFNα
effect on viral spread (% GFP positive cells) (parental CT26 cells): attenuates viral spread

CCN(CC)Cc1ccc2cc(COC(=O)Nc3ccc(C(=O)NO)cc3)ccc2c1 [ITF2357]
Efficacy [2]: −

CC#C[C@]1(O)CC[C@H]2[C@@H]3CCC4=CC(=O)CCC4=C3[C@@H](c3ccc(N(C)C)cc3)C[C@@]21C [Mifepristone]
Efficacy [2]: +
activity or benefit observed in the screening experiments (RRV): activity was observed

Nc1nc(=O)[nH]cc1F [5-FC, 5-fluorocytosine]
adverse event stopping the drug [7]: development of rash

O=C(NCCCNc1nc(Nc2cccc(NC(=O)N3CCCC3)c2)ncc1I)c1cccs1 [BX795]
Efficacy [6]: +
activity or benefit observed in the screening experiments (RRV): activity was observed

CCN(CC)CCCC(C)Nc1ccnc2cc(Cl)ccc12 (centres unmarked) [Chloroquine]
IC50 (TLR3, 7, 8, 9; read-out: Dosage/IC50, head does not say whether dosage or IC50): 20 µM
Dosage/IC50 (TLR3, 7, 8, 9; same value in mass units): 10 mg/L

B1: IFNβ: Recombinant mouse IFNβ (PBL Interferon Source) (protein, UniProt P01575 22-182, looked up)
Interferon beta: INYKQLQLQERTNIRKCQELLEQLNGKINLTYRADFKIPMEMTEKMQKSYTAFAIQEMLQNVFLVFRNNFSSTGWNETIVVRLLDELHQQTVFLKTVLEEKQEERLTWEMSSTALHLKSYYWRVQRYLKLMKYNSYAWMVVRAEIFRNFLIIRRLTRNFQN
effect on viral spread (% GFP positive cells) (parental Tu2449 cells): attenuates viral spread
